Where a name gives a salt, the structure may show the parent alone. Blank lines part the entries; values can stand above or below the compound they belong to.
Key:
[1] = system: AAPH-induced oxidation of linoleate; assay: AAPH-induced peroxidation of linoleate (conjugated dienes at 234 nm); assay type: biochemical; conditions: for A234 (amount of conjugated dienes formed by the peroxidative process): absorption at 234 nm after 150 min at 37° C., aminopyrazines at 10 μM, AAPH alone 0.37; for antioxidative activity (inhibition of lipid peroxidation), in words: comment on Table 2, 10 μM; for antioxidative activity (inhibition of AAPH-induced peroxidation of linoleic acid), in words: FIG. 3
Protocol: In a preferred embodiment the synthetic derivatives of 2-amino-1,4-pyrazine of family I, characterized by two aryl substituents in positions C-3 and C-5, were endowed with unexpectedly high antioxidative properties (FIG. 1). […] AAPH 4 mM was added to a micellar solution of linoleate (0.16 mM). The rate of conjugated dienes formation was measured at 234 nm at 37° C. All aminopyrazines were tested at 5 μM.
The ability of the synthesized compounds to inhibit lipid peroxidation has been tested on AAPH-induced oxidation of linoleate. Briefly, a micellar solution of linoleate (0.16 mM) is incubated at 37° C. with 4 mM free radical generator AAPH (2,2′-azobis-2-methyl-propionamidine hydrochloride) in a microplate-based spectrophotometer. The production of conjugated dienes by the peroxidation of linoleate is monitored continuously at 234 nm. Antioxidants can both delay the onset of the oxidation process and reduce the rate of the oxidation.
The amount of conjugated dienes formed by the peroxidative process evaluated by the absorption at 234 nm after 150 min at 37° C. All aminopyrazines were tested at 10 μM.

[2] = system: Human keratinocytes cells (HaCaT); assay: Protective effect against UVB in HaCaT cells (LDH release); assay type: cell-based; conditions: for Percentage Mortality (LDH assay), Unirradiated cells: 24 hours, no UVB; for mortality at 50 µM: Homo sapiens, light or radiation study, 30 min pre-incubation, UVB 200 mJ/cm^2, 24 hours, control 14.1, read-out: Percentage Mortality (LDH assay), UVB-irradiated cells
Protocol: Human keratinocytes cells (HaCaT) were cultured in 96-well microplates. Tested compounds were solubilized in phosphate buffered saline (PBS) and applied to cells 30 minutes prior to the irradiation with UVB in a BIOSUN irradiation system (Vilbert-Lourmat). PBS was then replaced by the culture medium containing the tested compounds, and incubated for a further 24 hours before measuring the percentage of lactate dehydrogenase (LDH) released into the cell culture supernatant.
Keratinocytes were pre-incubated with aminopyrazines (50 μM) for 30 min and then irradiated with UVB at 200 mJ/cm^2 in the absence of the antioxidant. The cells were then incubated for a further 24 hours in the culture medium containing the tested compounds before measuring the percentage of lactate dehydrogenase (LDH) released into the cell culture supernatant.
Keratinocytes were pre-incubated with increasing concentrations of CD43 for 30 min and then irradiated with UVB at 200 mJ/cm^2. The cells were incubated for a further 24 hours before measuring the percentage of lactate dehydrogenase (LDH) released into the cell culture supernatant.

[3] = FIG. 2, increasing concentrations of CD43

melting point: 175 °C (dec.)
Structure (SMILES): CCOC(=O)C(C)Nc1nc(NC(C)C(=O)OCC)c(-c2ccc(O)cc2)nc1-c1ccc(O)cc1 (centres unmarked) (as salt: hydrochloride) [JFC38, 2,6-Bis(1′-ethoxycarbonyl-ethylamino)-3,5-bis(p-hydroxyphenyl)-1,4-pyrazine]

Structure (SMILES): Nc1ncc(-c2ccc(O)cc2)nc1-c1ccc(O)cc1 [CD31, 2-amino-3,5-bis(p-hydroxyphenyl)-1,4-pyrazine]
A234 (amount of conjugated dienes formed by the peroxidative process) [1]: 0.08 | antioxidative activity (inhibition of lipid peroxidation), in words [1]: very active | Percentage Mortality (LDH assay), Unirradiated cells ([2]; 50 μM): 0% | mortality at 50 µM ([2]; 50 μM): 0%

Structure (SMILES): Nc1ncc(-c2ccc(O)cc2)nc1-c1ccccc1 [CD51, 2-amino-3-phenyl-5-(p-hydroxyphenyl)-1,4-pyrazine]
rate of the oxidation, in words ([1]; FIG. 6, 5 μM): only reduces the rate of the oxidation | A234 (amount of conjugated dienes formed by the peroxidative process) [1]: 0.12 | antioxidative activity (inhibition of lipid peroxidation), in words [1]: more activity | Percentage Mortality (LDH assay), Unirradiated cells ([2]; 50 μM): 0% | mortality at 50 µM ([2]; 50 μM): 7.3%

Structure (SMILES): Nc1nc(N)c(-c2ccccc2)nc1-c1ccccc1 [JFC 33]
antioxidative activity (inhibition of AAPH-induced peroxidation of linoleic acid), in words ([1]; 5 μM): active

Structure (SMILES): COc1ccc(-c2cnc(N)c(-c3ccc(OC)cc3)n2)cc1 [CD29, 2-Amino-3,5-bis(p-methoxyphenyl)-1,4-pyrazine, reference compound]
A234 (amount of conjugated dienes formed by the peroxidative process) [1]: 0.37 | antioxidative activity (inhibition of lipid peroxidation), in words [1]: reduced activities

Structure (SMILES): CCOC(=O)C(C)Nc1nc(NC(C)C(=O)OCC)c(-c2ccc(O)cc2)nc1-c1ccc(O)cc1 (centres unmarked) [JFC38, 2,6-Bis(1′-ethoxycarbonyl-ethylamino)-3,5-bis(p-hydroxyphenyl)-1,4-pyrazine]
antioxidative activity (inhibition of AAPH-induced peroxidation of linoleic acid), in words ([1]; 5 μM): very active

Structure (SMILES): Cc1nc2c(-c3ccccc3)[nH]c(-c3ccc(O)cc3)cn-2c1=O [CD53, 2-Methyl-6-(p-hydroxyphenyl)-8-phenyl-3,7-dihydroimidazolo[1,2-a]pyrazin-3-one]
onset of the oxidation process, in words ([1]; FIG. 6, 5 μM): firstly delays the onset of the oxidation process

Structure (SMILES): Nc1ncc(-c2ccccc2)nc1-c1ccc(O)cc1 [CD46, 2-amino-3-(p-hydroxyphenyl)-5-phenyl-1,4-pyrazine]
A234 (amount of conjugated dienes formed by the peroxidative process) [1]: 0.19 | Percentage Mortality (LDH assay), Unirradiated cells ([2]; 50 μM): 0% | protection against UVB-induced cytotoxicity, in words ([2]; 50 μM, UVB 200 mJ/cm^2): very efficiently reduced the cytotoxicity of UVB | mortality at 50 µM ([2]; 50 μM): 0%

Structure (SMILES): CCOC(=O)C(C)Nc1nc(NC(C)C(=O)OCC)c(-c2ccccc2)nc1-c1ccccc1 (centres unmarked) [JFC 39]
antioxidative activity (inhibition of AAPH-induced peroxidation of linoleic acid), in words ([1]; 5 μM): active

melting point: 99.5 °C (dec.)
Structure (SMILES): Cc1nc2c(-c3ccc(O)cc3)[nH]c(-c3ccccc3)cn-2c1=O (as salt: hydrochloride) (hydrate or solvate) [CD52, 2-Methyl-6-phenyl-8-(p-hydroxyphenyl)-3,7-dihydroimidazolo[1,2-a]pyrazin-3-one]

Structure (SMILES): Nc1nc(N)c(-c2ccc(O)cc2)nc1-c1ccc(O)cc1 [JFC28, 2,6-diamino-3,5-bis(p-hydroxyphenyl)-1,4-pyrazine]
antioxidative activity (inhibition of AAPH-induced peroxidation of linoleic acid), in words ([1]; 5 μM): does not improve the activity

Structure (SMILES): Cc1nc2c(-c3ccc(O)cc3)[nH]c(-c3ccc(O)cc3)cn-2c1=O [CD43, 2-Methyl-6,8-bis(p-hydroxyphenyl)-3,7-dihydroimidazolo[1,2-a]pyrazin-3-one]
onset of peroxidation, in words [1, 3]: delay of the onset of peroxidation | rate of oxidation after onset, in words [1, 3]: lower rate of oxidation after onset | protection against UVB-induced mortality, in words ([2]; FIG. 4, increasing concentrations of CD43, UVB 200 mJ/cm^2): very efficiently protect cells against UVB-induced mortality | toxicity for cells, in words ([2]; controls): no toxicity for cells

From US20040034225A1, “Aryl-substituted n, n-heterocyclic compounds, method for their preparationand their use in therapeutics and diagnostics” (priority 2000, published 2004)
